How the values were obtained:
[1] = target: T1, Sodium-dependent dopamine transporter (Homo sapiens, UniProt Q01959); assay: Inhibition of DAT (unknown origin) assessed as reduction of [3H]-DA re-uptake
[2] = target: Sodium-dependent serotonin transporter (Homo sapiens, UniProt P31645)
Description: Binding affinity to SERT (unknown origin)

Rattus norvegicus [3] = assay: In vivo receptor occupancy at DAT in Sprague-Dawley rat at 0.1 mg/kg, sc measured at 1 to 8 hrs post dose; type: functional
[4] = target: Sodium-dependent noradrenaline transporter (Homo sapiens, UniProt P23975)
Description: Binding affinity to NET (unknown origin)

Rattus norvegicus [5] = assay: In vivo receptor occupancy at SERT in Sprague-Dawley rat at 0.1 mg/kg, sc measured at 1 to 8 hrs post dose; type: functional
Rattus norvegicus [6] = assay: In vivo receptor occupancy at NET in Sprague-Dawley rat at 0.1 mg/kg, sc measured at 1 to 8 hrs post dose; type: functional
[7] = target: T1, Sodium-dependent dopamine transporter
Description: Binding affinity to DAT (unknown origin)

[8] = Ratio of drug uptake in Sprague-Dawley rat brain to plasma at 1 mg/kg, sc by HPLC analysis; type: ADME, organism-based; settings: read-out: BPR
Rattus norvegicus [9] = assay: In vivo receptor occupancy at SERT in ip dosed rat brain measured 60 mins post dose; type: functional; settings: 1 h
Mus musculus [10] = assay: Reversal of motor depression in po dosed mouse measured at 3rd, 6th and 23rd hr followed by second administration on 24th hr administered as 4 injections for 4 consecutive days measured from day 3 to 10 days post last dose; type: functional; settings: read-out: MED
Rattus norvegicus [11] = assay: In vivo receptor occupancy at NET in ip dosed rat brain measured 60 mins post dose; type: functional; settings: 1 h
Mus musculus [12] = assay: Reversal of ptosis in po dosed mouse measured at 3rd, 6th and 23rd hr followed by second administration on 24th hr administered as 4 injections for 4 consecutive days measured from day 3 to 10 days post last dose; type: functional
Rattus norvegicus [13] = assay: In vivo receptor occupancy at DAT in ip dosed rat brain measured 60 mins post dose; type: functional; settings: 1 h

T1 sequence (Q01959 whole entry): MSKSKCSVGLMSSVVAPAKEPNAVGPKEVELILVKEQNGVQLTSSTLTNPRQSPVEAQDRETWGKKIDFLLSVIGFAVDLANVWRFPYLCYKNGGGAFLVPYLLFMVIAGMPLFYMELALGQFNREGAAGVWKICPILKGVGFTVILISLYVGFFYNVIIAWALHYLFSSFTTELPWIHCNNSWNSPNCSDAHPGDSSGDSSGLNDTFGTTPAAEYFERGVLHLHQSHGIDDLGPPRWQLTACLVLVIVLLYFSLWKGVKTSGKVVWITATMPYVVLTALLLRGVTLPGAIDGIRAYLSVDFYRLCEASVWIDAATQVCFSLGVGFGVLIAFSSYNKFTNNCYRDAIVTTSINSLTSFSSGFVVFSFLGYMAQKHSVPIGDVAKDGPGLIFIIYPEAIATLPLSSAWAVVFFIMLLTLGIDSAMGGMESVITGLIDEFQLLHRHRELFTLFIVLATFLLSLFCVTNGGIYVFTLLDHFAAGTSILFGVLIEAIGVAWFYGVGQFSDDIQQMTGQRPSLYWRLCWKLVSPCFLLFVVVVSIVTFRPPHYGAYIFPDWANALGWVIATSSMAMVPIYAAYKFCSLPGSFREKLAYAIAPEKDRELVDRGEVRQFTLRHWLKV
Sequence of Sodium-dependent serotonin transporter (P31645 whole entry): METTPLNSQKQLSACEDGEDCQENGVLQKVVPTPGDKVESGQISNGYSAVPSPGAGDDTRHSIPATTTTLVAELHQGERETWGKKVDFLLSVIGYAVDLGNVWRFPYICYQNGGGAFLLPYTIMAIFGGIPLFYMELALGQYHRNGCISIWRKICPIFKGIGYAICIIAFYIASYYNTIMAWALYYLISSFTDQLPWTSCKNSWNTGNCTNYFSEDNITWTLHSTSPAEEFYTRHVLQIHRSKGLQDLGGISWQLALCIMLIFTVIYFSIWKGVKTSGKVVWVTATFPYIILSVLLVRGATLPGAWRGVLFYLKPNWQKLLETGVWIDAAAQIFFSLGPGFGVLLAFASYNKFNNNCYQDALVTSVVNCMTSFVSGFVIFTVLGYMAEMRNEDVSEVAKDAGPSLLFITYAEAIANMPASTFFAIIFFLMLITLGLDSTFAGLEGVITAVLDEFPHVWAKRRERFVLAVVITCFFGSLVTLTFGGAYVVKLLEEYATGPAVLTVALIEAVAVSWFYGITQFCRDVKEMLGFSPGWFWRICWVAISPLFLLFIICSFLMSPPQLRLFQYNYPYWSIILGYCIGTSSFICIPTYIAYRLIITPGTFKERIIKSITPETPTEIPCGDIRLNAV
Sequence of Sodium-dependent noradrenaline transporter (P23975 whole entry): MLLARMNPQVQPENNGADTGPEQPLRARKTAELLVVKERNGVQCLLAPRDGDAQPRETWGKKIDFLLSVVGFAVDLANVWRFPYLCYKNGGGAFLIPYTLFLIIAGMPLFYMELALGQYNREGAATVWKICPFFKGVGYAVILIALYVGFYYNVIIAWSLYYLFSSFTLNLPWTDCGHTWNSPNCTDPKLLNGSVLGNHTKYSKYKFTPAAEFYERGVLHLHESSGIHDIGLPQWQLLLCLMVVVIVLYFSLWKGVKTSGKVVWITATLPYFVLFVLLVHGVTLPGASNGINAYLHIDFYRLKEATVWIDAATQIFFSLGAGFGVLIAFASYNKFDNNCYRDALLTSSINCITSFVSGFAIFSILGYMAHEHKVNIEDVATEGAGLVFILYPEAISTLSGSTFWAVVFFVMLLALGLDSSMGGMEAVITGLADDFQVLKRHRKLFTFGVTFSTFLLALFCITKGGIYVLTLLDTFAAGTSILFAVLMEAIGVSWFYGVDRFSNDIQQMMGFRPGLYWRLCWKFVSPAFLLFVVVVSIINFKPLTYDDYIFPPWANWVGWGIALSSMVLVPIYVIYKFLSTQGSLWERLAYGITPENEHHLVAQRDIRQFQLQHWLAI

`CNC[C@H]1C2CCC(C2)[C@@H]1c1ccc2ccccc2c1` (stereo partly drawn) gave an IC50 [1] of 96 nM.
Compound `C#Cc1ccc(C2CN3CCCC3c3ccccc32)cc1` (racemic) has a Ki [2] of 0.9 nM, an Occ (Rattus norvegicus [3]) of 50% and a Ki [4] of 16.6 nM. The Occ (Rattus norvegicus [5]) was 94%, the Occ (Rattus norvegicus [6]) was 95% and the Ki [7] was 5.2 nM. For the same compound, the Kp [8] was 7.5.
With `Clc1ccc([C@]23CNC[C@H]2C3)cc1Cl` [AMITIFADINE] the ED50 (Rattus norvegicus [9]) was 3 mg/kg, the minimal effective dose (Mus musculus [10]) was 1.6 mg/kg and the ED50 (Rattus norvegicus [11]) was 19 mg/kg. It also gave an ED50 (Mus musculus [12]) of 2.2 mg/kg and an ED50 (Rattus norvegicus [13]) of 95 mg/kg.
